Test results as given in PMC7156724, “Potent BRD4 inhibitor suppresses cancer cell-macrophage interaction” (Nature Communications, 2020).
Several values for one entry are separate records, joined by “and”; a condition that tells them apart may be missing. Identical values can stand only once.

Legend:
ES-2 cells = assay: Clonogenic (colony formation) assay, ES-2; format: cell-based, human; conditions: ES-2, 250 nM, 5 days
Procedure: Fig. 2 NHWD-870 inhibited BRD4 phosphorylation and c-MYC expression, and suppressed cell growth. a Representative western blot analysis of p-BRD4 (s484/488), BRD4, c-MYC, and GAPDH after treatment of MDA-MB231, SUM159, A2780 ES-2, and H526 cells with JQ-1 or NHWD-870 at the indicated concentrations for 24 h. GAPDH served as the loading control. Selected from three independent experiments. b MTT assays of H526, A2780, ES-2, and MDA-MB231 cells treated with JQ-1 or NHWD-870 at the indicated concentrations for 5 days. Data are presented as mean ± SEM from three independent experiments. c, d Clonogenic assays of H526, A2780, ES-2 and MDA-MB231 cells treated with 250 nM JQ-1 or NHWD-870 for 5 days. Shown are representative images (c) and quantification of colonies (d). […] Shown are representative images (e) and quantification of relative colony sizes (f). Scale bar, 50 μm. Data are presented as mean ± SEM from five independent experiments. p values were calculated using two-tailed, unpaired t tests in this figure. **p < 0.01; ***p < 0.001. Source data are provided as a Source Data file. […]
5. Colony formation assay. Cells were seeded in 6-well plates at 3,000 cells/well […]
every week. […] Colony numbers were calculated with imageJ version

[1] = Metabolic stability assay, dog liver microsomes; conditions: for Remaining in Dog liver microsomes (Sup Fig.6c): in % (unit assumed)
Procedure: 7. Metabolic stability assay. The metabolic profile of NHWD-870 was determined using mouse, rat, dog, monkey, and human liver microsomes using the protocols […]
No. Compound ID Exat Mass Stock Conc.
1) 100 mM potassium phosphate buffer, PH7.4; 2) 10mM MgCI2
1) Intermediate solution: Dilute 5 μL of compound or control from stock solution (10 mM) with 45 uL DMSO,then mixed with 450 μL 1:1 Methanol/Water (Conc.: 10 0 […]
2) Working solution: Dilute 50 μL from intermediate solution with 450 μL 100 mM potassium phosphate buffer (Conc.: 10 μM, 4.5%MeOH)
(3) NADPH regenerating system (final Isocitric dehydrogenase conc.= 1 unit/mL at […]
1) β-Nicotinamide adenine dinucleotide phosphate, Vendor: sigma Cat. No. N0505
2) Isocitric acid, Vendor: Sigma Cat. No. I1252
3) Isocitric dehydrogenase, Vendor: sigma Cat. No. I2002
(4) Liver microsome solution preparation (final concentration o f 0.5 mg protein/mL) […]
Cold ACN including 100 ng/mL Tolbutamide and 100 ng/mL Labetalol as internal […]
1) Add 10 μL compound or control working solution/well to all plates (T0, T5, T10, T20, T30, T60, NCF60) except matrix blank.
2) Dispense 680 μL/well microsome solution to 96-well plate as reserv oir according to […]
plate map. Then add 80 μL/well to every plate by Apricot, incubate the mixture of microsome solution and compound at 37℃ for about 10 min.
3) Add 10 μL 100 mM potassium phosphate buffer/well to NCF60, incubate at 37℃, […]
4) After pre-warming, dispense 90 μL/well NADPH regenerating system to 96-well plate as reservoir according to the plate map. Then add 10 μL/well to every plate by Apricot to start reaction.
5) Incubate at 37℃, start timer 2.
6) Add 300 (μL/well) stop solution (cold in 4℃, including 100 ng/mL Tolbutamide and 100 ng/mL Labetalol) to terminate the reaction.
7) The sampling plates are shaked for approx 10 min.
8) Samples are centrifuged at 4000 rpm for 20 min under 4℃.
9) While centrifuging, load 8×new 96-well plate with 300 μL HPLC water, then transfer 100 μL supernatant, mixed for LC/MS/MS.
Use equation of first order kinetics to calculate t1/2 and Clin t(mic): […]
Equation of first order kinetics: […]

[2] = Beagle, dog, liver microsomes, pH 7.4

Q: For `Cc1nnn(C)c1-c1cnc2c3c4cnn(C)c4ccc3n([C@H](c3ccccc3)C3CCOCC3)c2c1` [NHWD-870], which “Clone Number (clonogenic assay)” value (ES-2 cells) is on record?
A: Its value is 146 and 155 and 103 and 98 and 133.

Q: What about the CLint scaled at 1 µM [1, 2] of the same molecule?
A: Its CLint scaled at 1 µM is 95.9 mL/min/kg.

Q: And the half-life at 1 µM [1, 2]?
A: Its half-life at 1 µM is 20.8 min.

Q: And the microsomal CLint at 1 µM ([1]; Beagle, dog, microsomes, pH 7.4)?
A: Its microsomal CLint at 1 µM is 66.6 µL/min/mg.

Q: What about the “Remaining (T=60min)” value ([1]; dog liver microsomes) of the same molecule?
A: Its value is 12.4%.

Q: What about the “Remaining (*NCF=60min)” value ([1]; dog liver microsomes, no cofactor) of the same molecule?
A: Its value is 84.1%.

Q: And the “Remaining in Dog liver microsomes (Sup Fig.6c)” value (“Remaining … (Sup Fig.6c)” for short) ([1]; time 0)?
A: Its value is 100.

Q: And the “Remaining … (Sup Fig.6c)” value ([1]; time 5)?
A: The value was 89.9.

Q: What about the “Remaining … (Sup Fig.6c)” value ([1]; time 10) of the same molecule?
A: Its value is 73.773.

Q: What about the “Remaining … (Sup Fig.6c)” value ([1]; time 20) of the same molecule?
A: Its value is 58.934.

Q: And the “Remaining … (Sup Fig.6c)” value ([1]; time 30)?
A: The value was 41.202.

Q: What about the “Remaining … (Sup Fig.6c)” value ([1]; time 60) of the same molecule?
A: Its value is 25.67.
